Test results published in US10196393B2, “JAK inhibitors containing a 4-membered heterocyclic amide” (THERAVANCE BIOPHARMA R&D IP, LLC, priority 2017, dated 2019).

What was measured:
JAK1 = JAK1 (Homo sapiens (Human), UniProt P23458); assay: Biochemical JAK kinase assay (LanthaScreen), JAK1; details: converted from pIC50 with Cheng-Prusoff equation
Experimental: (§1) Assay 1: Biochemical JAK Kinase Assays
(§2) A panel of four LanthaScreen JAK biochemical assays (JAK1, 2, 3 and Tyk2) were carried in a common kinase reaction buffer (50 mM HEPES, pH 7.5, 0.01% Brij-35, 10 mM MgCl2, and 1 mM EGTA). Recombinant GST-tagged JAK enzymes and a GFP-tagged STAT1 peptide substrate were obtained from Life Technologies.
(§3) Serially diluted compounds were pre-incubated with each of the four JAK enzymes and the substrate in white 384-well microplates (Corning) at ambient temperature for 1 h. ATP was subsequently added to initiate the kinase reactions in 10 μL total volume, with 1% DMSO. […] The plates were allowed to incubate at ambient temperature for 1 h before being read on the EnVision reader (Perkin Elmer).
(§4) For dose-response analysis, percent inhibition data were plotted vs. compound concentrations, and IC50 values were determined from a 4-parameter robust fit model with the Prism software (GraphPad Software). Results were expressed as pIC50 (negative logarithm of IC50) and subsequently converted to pKi (negative logarithm of dissociation constant, Ki) using the Cheng-Prusoff equation.

JAK3 = JAK3 (Homo sapiens (Human), UniProt P52333); assay: Biochemical JAK kinase assay (LanthaScreen), JAK3; details: converted from pIC50 with Cheng-Prusoff equation
Sequence of JAK3 (P52333 whole entry): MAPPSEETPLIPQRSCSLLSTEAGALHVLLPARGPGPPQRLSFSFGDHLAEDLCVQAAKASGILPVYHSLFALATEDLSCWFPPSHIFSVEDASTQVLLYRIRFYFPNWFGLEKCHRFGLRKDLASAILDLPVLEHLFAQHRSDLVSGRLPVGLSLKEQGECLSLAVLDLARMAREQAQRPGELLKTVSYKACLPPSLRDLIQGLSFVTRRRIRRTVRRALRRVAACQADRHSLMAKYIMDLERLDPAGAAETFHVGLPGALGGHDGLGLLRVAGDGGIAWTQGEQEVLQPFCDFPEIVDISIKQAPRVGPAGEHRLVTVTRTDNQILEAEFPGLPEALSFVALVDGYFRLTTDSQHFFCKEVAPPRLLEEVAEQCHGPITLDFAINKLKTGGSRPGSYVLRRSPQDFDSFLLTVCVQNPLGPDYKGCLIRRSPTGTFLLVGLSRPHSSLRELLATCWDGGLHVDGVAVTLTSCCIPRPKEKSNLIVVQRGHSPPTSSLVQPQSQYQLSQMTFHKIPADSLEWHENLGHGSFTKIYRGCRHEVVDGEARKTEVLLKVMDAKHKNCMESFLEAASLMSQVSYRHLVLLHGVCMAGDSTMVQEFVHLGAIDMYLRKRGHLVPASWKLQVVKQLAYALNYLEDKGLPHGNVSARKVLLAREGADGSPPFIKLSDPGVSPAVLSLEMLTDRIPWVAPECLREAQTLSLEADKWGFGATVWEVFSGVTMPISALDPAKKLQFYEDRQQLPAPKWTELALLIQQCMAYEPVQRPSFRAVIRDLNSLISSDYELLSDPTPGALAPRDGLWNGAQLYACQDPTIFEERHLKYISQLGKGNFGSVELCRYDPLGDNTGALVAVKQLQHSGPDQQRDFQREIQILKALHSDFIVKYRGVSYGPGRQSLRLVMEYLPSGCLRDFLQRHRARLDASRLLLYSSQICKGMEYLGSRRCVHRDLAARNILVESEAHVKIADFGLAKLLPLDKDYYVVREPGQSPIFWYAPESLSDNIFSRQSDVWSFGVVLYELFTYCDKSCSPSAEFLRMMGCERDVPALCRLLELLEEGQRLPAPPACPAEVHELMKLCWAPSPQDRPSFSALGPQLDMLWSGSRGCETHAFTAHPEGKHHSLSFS
Experimental: as §1, §2, §3, §4

[1] = system: IL-13 induced STAT6 phosphorylation in BEAS-2B human lung epithelial cells; assay: Cellular JAKI potency assay (AlphaScreen), BEAS-2B; assay type: cell-based; details: Homo sapiens, BEAS-2B cells
Experimental: Assay 2: Cellular JAKI Potency Assay
The AlphaScreen JAKI cellular potency assay was carried out by measuring interleukin-13 (IL-13, R&D Systems) induced STAT6 phosphorylation in BEAS-2B human lung epithelial cells (ATCC). The anti-STAT6 antibody (Cell Signaling Technologies) was conjugated to AlphaScreen acceptor beads (Perkin Elmer), while the anti-pSTAT6 (pTyr641) antibody (Cell Signaling Technologies) was biotinylated using EZ-Link Sulfo-NHS-Biotin (Thermo Scientific).
BEAS-2B cells were grown at 37° C. in a 5% CO2 humidified incubator in 50% DMEM/50% F-12 medium (Life Technologies) supplemented with 10% FBS (Hyclone), 100 U/mL penicillin, 100 μg/mL streptomycin (Life Technologies), and 2 mM GlutaMAX (Life Technologies). On day 1 of the assay, cells were seeded at a 7,500 cells/well density in white poly-D-lysine-coated 384-well plates (Corning) with 25 μL medium, and were allowed to adhere overnight in the incubator. On day 2 of the assay, the medium was removed and replaced with 12 μL of assay buffer (Hank's Balanced Salt Solution/HBSS, 25 mM HEPES, and 1 mg/ml bovine serum albumin/BSA) containing dose-responses of test compounds. Compounds were serially diluted in DMSO and then diluted another 1000-fold in media to bring the final DMSO concentration to 0.1%. Cells were incubated with test compounds at 37° C. for 1 h, and followed by the addition of 12 μl of pre-warmed IL-13 (80 ng/mL in assay buffer) for stimulation. After incubating at 37° C. for 30 min, the assay buffer (containing compound and IL-13) was removed, and 10 μL of cell lysis buffer (25 mM HEPES, 0.1% SDS, 1% NP-40, 5 mM MgCl2, 1.3 mM EDTA, 1 mM EGTA, and supplement with Complete Ultra mini protease inhibitors and PhosSTOP from Roche Diagnostics). The plates were shaken at ambient temperature for 30 min before the addition of detection reagents. A mixture of biotin-anti-pSTAT6 and anti-STAT6 conjugated acceptor beads was added first and incubated at ambient temperature for 2 h, followed by the addition of streptavidin conjugated donor beads (Perkin Elmer). After a minimum of 2 h incubation, the assay plates were read on the EnVision plate reader. AlphaScreen luminescence signals were recorded and utilized to calculate the percent inhibition values based on DMSO and background controls.
For dose-response analysis, percent inhibition data were plotted vs. compound concentrations, and IC50 values were determined from a 4-parameter robust fit model with the Prism software. Results may also be expressed as the negative logarithm of the IC50 value, pIC50.
Test compounds having a lower IC50 value or higher pIC50 value in this assay show greater inhibition of IL-13 induced STAT6 phosphorylation.

[2] = system: IL-13 induced pSTAT6 induction in lung tissue; assay: Murine model of IL-13 induced pSTAT6 induction in lung tissue; assay type: in vivo; details: mouse lung, 1 mg/mL 50 μL oral aspiration, IL-13 challenge 4 h after dose, lungs at 5 hours
Excerpt: Assay 4: Murine (Mouse) Model of IL-13 Induced pSTAT6 Induction in Lung Tissue
Il-13 is an important cytokine underlying the pathophysiology of asthma (Kudlacz et al. Eur. J. Pharmacol, 2008, 582,154-161). IL-13 binds to cell surface receptors activating members of the Janus family of kinases (JAK) which then phosphorylate STAT6 and subsequently activates further transcription pathways. In the described model, a dose of IL-13 was delivered locally into the lungs of mice to induce the phosphorylation of STAT6 (pSTAT6) which is then measured as the endpoint.
Adult balb/c mice from Harlan were used in the assay. On the day of study, animals were lightly anesthetized with isoflurane and administered either vehicle or test compound (1 mg/mL, 50 μL total volume over several breaths) via oral aspiration. Animals were placed in lateral recumbency post dose and monitored for full recovery from anesthesia before being returned to their home cage. Four hours later, animals were once again briefly anesthetized and challenged with either vehicle or IL-13 (0.03 μg total dose delivered, 50 μL total volume) via oral aspiration before being monitored for recovery from anesthesia and returned to their home cage. One hour after vehicle or IL-13 administration, lungs were collected for both pSTAT6 detection using an anti-pSTAT6 ELISA (rabbit mAb capture/coating antibody; mouse mAb detection/report antibody: anti-pSTAT6-pY641; secondary antibody: anti-mouse IgG-HRP) and analyzed for total drug concentration as described above in Assay 3.
Selected compounds of the invention were tested in the assay. Activity in the model is evidenced by a decrease in the level of pSTAT6 present in the lungs of treated animals at 5 hours compared to the vehicle treated, IL-13 challenged control animals. The difference between the control animals which were vehicle-treated, IL-13 challenged and the control animals which were vehicle-treated, vehicle challenged dictated the 0% and 100% inhibitory effect, respectively, in any given experiment.

[3] = system: Alternaria alternata-induced eosinophilic inflammation of the lung (BALF eosinophils); assay: Murine model of Alternaria alternata-induced eosinophilic inflammation of the lung; assay type: in vivo; details: mouse, oropharyngeal aspiration 0.03-1.0 mg/mL, BALF 48 h after challenge; maximum statistically significant inhibition
Excerpt: Assay 5: Murine Model of Alternaria alternata-Induced Eosinophilic Inflammation of the Lung
Airway eosinophilia is a hallmark of human asthma. Alternaria alternata is a fungal aeroallergen that can exacerbate asthma in humans and induces eosinophilic inflammation in the lungs of mice (Havaux et al. Clin Exp Immunol. 2005 February; 139(2):179-88).
Seven- to nine-week old male C57 mice from Taconic were used in the study. On the day of study, animals were lightly anesthetized with isoflurane and administered either vehicle or test compound (0.03-1.0 mg/mL, 50 μL total volume over several breaths) via oropharyngeal aspiration. Animals were placed in lateral recumbency post dose and monitored for full recovery from anesthesia before being returned to their home cage. One hour later, animals were once again briefly anesthetized and challenged with either vehicle or alternaria extract (200 ug total extract delivered, 50 μL total volume) via oropharyngeal aspiration before being monitored for recovery from anesthesia and returned to their home cage. Forty-eight hours after alternaria administration, bronchoalveolar lavage fluid (BALF) was collected and eosinophils were counted in the BALF using the Advia 120 Hematology System (Siemens). […]

[4] = Pharmacokinetics in plasma and lung in mouse; details: oral aspiration, 0.2 mg/mL 50 μL, lung AUC (μg hr/g) / plasma AUC (μg hr/mL)

Sequence of JAK1 (P23458 whole entry): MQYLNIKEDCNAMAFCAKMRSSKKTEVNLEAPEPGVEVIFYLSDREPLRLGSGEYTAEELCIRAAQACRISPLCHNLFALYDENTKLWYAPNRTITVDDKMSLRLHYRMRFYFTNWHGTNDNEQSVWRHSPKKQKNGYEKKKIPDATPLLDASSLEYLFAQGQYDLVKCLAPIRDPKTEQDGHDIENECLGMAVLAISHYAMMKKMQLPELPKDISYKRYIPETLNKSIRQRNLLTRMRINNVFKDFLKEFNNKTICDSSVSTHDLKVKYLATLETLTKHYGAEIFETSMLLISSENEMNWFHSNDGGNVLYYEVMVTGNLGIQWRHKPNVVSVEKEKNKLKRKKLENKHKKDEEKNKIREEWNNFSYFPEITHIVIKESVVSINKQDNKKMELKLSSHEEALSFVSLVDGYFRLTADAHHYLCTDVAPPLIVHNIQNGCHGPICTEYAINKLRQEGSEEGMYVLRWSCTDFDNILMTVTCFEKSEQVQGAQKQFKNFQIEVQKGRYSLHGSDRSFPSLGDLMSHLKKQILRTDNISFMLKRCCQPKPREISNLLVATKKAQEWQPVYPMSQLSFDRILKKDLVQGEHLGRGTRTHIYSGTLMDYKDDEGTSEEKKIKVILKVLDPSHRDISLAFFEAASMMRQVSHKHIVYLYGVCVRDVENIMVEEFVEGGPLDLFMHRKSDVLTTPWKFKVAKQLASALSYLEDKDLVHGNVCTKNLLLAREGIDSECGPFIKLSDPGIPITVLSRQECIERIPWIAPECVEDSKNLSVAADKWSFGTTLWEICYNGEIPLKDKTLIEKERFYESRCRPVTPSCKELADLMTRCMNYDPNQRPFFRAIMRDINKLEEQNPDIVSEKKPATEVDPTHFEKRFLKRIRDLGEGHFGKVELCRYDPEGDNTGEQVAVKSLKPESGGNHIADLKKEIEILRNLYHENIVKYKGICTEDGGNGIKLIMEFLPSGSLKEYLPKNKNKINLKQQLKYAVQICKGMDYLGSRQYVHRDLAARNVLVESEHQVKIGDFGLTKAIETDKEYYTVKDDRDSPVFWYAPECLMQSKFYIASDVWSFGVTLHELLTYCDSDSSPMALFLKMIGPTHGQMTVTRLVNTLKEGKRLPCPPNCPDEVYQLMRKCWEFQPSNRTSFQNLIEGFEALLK

## CCCN1Cc2[nH]c(-c3n[nH]c4cc(-c5cc(F)c(O)cc5CC)ccc34)nc2C[C@H]1C(=O)N1CC(N(C)C)C1 [Example 4, (S)-(3-(dimethylamino)azetidin-1-yl)(2-(6-(2-ethyl-5-fluoro-4-hydroxyphenyl)-1H-indazol-3-yl)-5-propyl-4,5,6,7-tetrahydro-3H-imidazo[4,5-c]pyridin-6-yl)methanone]
JAK1
  Ki: 0.06 nM
JAK3
  Ki: 0.13 nM
[1]
  IC50: 7.4 nM
[2]
  pSTAT6 inhibition Assay 4: A (A represents between 60% and 80% inhibition)
[3]
  Percent Inhibition of Alternaria-induced BALF Eosinophils: 79%
[4]
  Lung to Plasma ratio Assay 3: C (C denotes a ratio between 20 and 50)
